Data from patent US7585839B2, “Medical uses of intercellular communication facilitating compounds” (Zealand Pharma A/S, priority 2001, dated 2009).
Where a SMILES comes first, the peptide text is derived from it. [ ]: non-standard residue; d: D form. The star is where a group is joined. Dnp = O=[N+]([O-])c1ccc(*)c([N+](=O)[O-])c1; X1 = [N-]=[N+]=Nc1cc(O)c(C(=O)*)cc1I; Hyp = O=C(O)[C@@H]1C[C@@H](O)CN1; dHyp = O=C(O)[C@H]1C[C@H](O)CN1; Pip = O=C(O)[C@@H]1CCCCN1; Thz = O=C(O)[C@@H]1CSCN1; Acm = CC(=O)NC*; Sar = CNCC(=O)O

Tested on: calcium-induced arrythmias
Assay: Calcium-induced arrhythmia model in mice (CaCl2-induced 2nd degree AV-block)
Assay type: in vivo
Set-up: CaCl2 mice Score: scale not given here
Settings: for CaCl2 mice In vivo, % / CaCl2 mice Score: calcium chloride induced arrythmia model; for In vivo activity: maximal effect, increase in time until 2nd degree AV-block relative to vehicle treated mice, i.v.
Procedure: The antiarrhythmic effects of compounds of this invention were tested in an in vivo model of calcium-induced arrythmias according to the model of Lynch et al.^[37]. […]. Commercial solutions of hypnorm and midazolam were diluted 1:1 in distilled water and one part diluted Hypnorm® is mixed with one part diluted midazolam.
The anaesthesia was induced by s.c. administration in a dose of 0.05-0.075 μl/10 gram mouse. An i.v. cannula was inserted into the tail vein. The lead II ECG signal was recorded continuously by positioning of a stainless steel ECG electrodes on the right forelimb and on the left hind limb. The ground electrode was placed on the right hind limb. The signal was amplified (×5.000-10.000) and filtered (0.1-150 Hz) via a Hugo Sachs Electronic model 689 ECG module. The analogue signal was digitised via a 12 bit data acquisition board (Data Translation model DT321) and sampled at 1000 Hz using the Notocord HEM 3.1 software for Windows NT. After a 10-min equilibration period, the test sample of drug was injected into the tail vein. Mice pre-treated with vehicle were tested as a measure of the control level in untreated animals. The injection volume was 100 μl in all experiments. Infusion of CaCl2 (30 mg/ml, 0.1 ml/min≈100 mg/kg/min (calciumchlorid-2-hydrat, Riedel-de Haën, Germany)) was started 3 min after i.v. administration of drug or vehicle.
The time lag to onset of 2nd degree AV-block was determined as the time from the start of CaCl2 infusion until the first arrhythmic event occured. An event of 2nd degree AV-block was defined as intermittent failure of the AV conduction characterised by a P-wave without the concomitant QRS complex.
Responses were expressed relative to the time until 2nd degree AV-block occurred in vehicle treated mice.

NC(=O)CNC(=O)[C@H](CC(N)=O)NC(=O)[C@@H](N)Cc1ccc(O)cc1 [H-YNG-NH2] (H-Tyr-Asn-Gly-NH2)
CaCl2 mice In vivo, %: 34 +/− 9%

H-GAGGPY-NH2 [H-GAGGPY-NH2]
CaCl2 mice In vivo, %: 32 +/− 9%

H-GP[Hyp]GAG-OH [AAP, reference compound]
CaCl2 mice In vivo, %: 35 +/− 7% | CaCl2 mice Score: 2

CC(=O)N[C@@H](Cc1ccc(O)cc1)C(=O)N[C@@H](CC(=O)O)C(=O)N[C@@H](CC(N)=O)C(=O)NCC(N)=O [Ac-Y-D-N-G-NH2] (Ac-YDNG-NH2)
CaCl2 mice In vivo, %: 17 +/− 8%

C[C@H](NC(=O)CN)C(=O)NCC(=O)N1C[C@H](O)C[C@H]1C(=O)N1CCC[C@H]1C(=O)N[C@@H](Cc1ccc(O)cc1)C(=O)N[C@@H](CC(N)=O)C(N)=O [H-AAP-10-Asn-NH2] (H-GAG[Hyp]PYN-NH2)
CaCl2 mice In vivo, %: 31 +/− 6%

C[C@H](NC(=O)CNC(=O)[C@@H]1C[C@@H](O)CN1C(=O)[C@@H]1CCCN1C(=O)c1cc(I)c(N=[N+]=[N-])cc1O)C(=O)NCC(N)=O [Compound 32, ASAL(mono-iodo)-Pro-Hyp-Gly-Ala-Gly-NH2] (X1-P[Hyp]GAG-NH2)
In vivo activity: +++ (+++ refers to >60% increase in time until arrhythmia)

C[C@H](NC(=O)CN)C(=O)N[C@@H](CC(N)=O)C(=O)N[C@@H](Cc1ccc(O)cc1)C(N)=O [H-GANY-NH2] (H-GANY-NH2)
CaCl2 mice In vivo, %: 21 +/− 7%

CF3C(O)-AAP10-NH2
CaCl2 mice In vivo, %: 48 +/− 13% | CaCl2 mice Score: 3

H-DY-DN-G-NH2
CaCl2 mice In vivo, %: 25 +/− 9% | CaCl2 mice Score: 1

C[C@H](NC(=O)CN)C(=O)NCC(=O)N1C[C@H](O)C[C@H]1C(=O)N1CCC[C@H]1C(=O)N[C@@H](Cc1ccc(O)cc1)C(=O)N[C@@H](CCCCN)C(=O)N[C@@H](CCCCN)C(=O)N[C@@H](CCCCN)C(=O)N[C@@H](CCCCN)C(=O)N[C@@H](CCCCN)C(=O)N[C@@H](CCCCN)C(N)=O [Compound 50] (H-GAG[Hyp]PYKKKKKK-NH2)
CaCl2 mice In vivo, %: 33 +/− 17% | CaCl2 mice Score: 2

C[C@H](NC(=O)CNC(=O)[C@H](CC(N)=O)NC(=O)[C@H](Cc1ccc(O)cc1)NC(=O)[C@@H]1CCCN1C(=O)[C@@H]1C[C@@H](O)CN1)C(=O)NCC(N)=O [Compound 28, H-Hyp-Pro-Tyr-Asn-Gly-Ala-Gly-NH2] (H-[Hyp]PYNGAG-NH2)
CaCl2 mice Score: 2 | In vivo activity: (+) ((+) refers to <15% in time until arrhythmia)

NCC(=O)N[C@@H](CCCCNc1ccc([N+](=O)[O-])cc1[N+](=O)[O-])C(=O)N[C@@H](Cc1ccc(O)cc1)C(N)=O [H-GK(DNP)Y-NH2] (H-Gly-Lys(Dnp)-Tyr-NH2)
CaCl2 mice In vivo, %: 25 +/− 7%

CC(=O)NCSC[C@H](NC(=O)[C@H](Cc1ccc(O)cc1)NC(=O)[C@@H]1CCCN1C(=O)[C@@H]1C[C@@H](O)CN1C(=O)CNC(=O)[C@H](C)NC(=O)CNC(=O)[C@@H](N)CSCNC(C)=O)C(N)=O [Compound 16, H-Cys(Acm)-Gly-Ala-Gly-Hyp-Pro-Tyr-Cys(Acm)-NH2] (H-C(Acm)GAG[Hyp]PYC(Acm)-NH2)
CaCl2 mice In vivo, %: 23 +/− 10% | CaCl2 mice Score: 1 | In vivo activity: + (+ refers to 15-29% increase in time until arrhythmia)

Cyclo(Tyr-Pro-4Hyp-Gly-Ala-Gly-Asn) [Compound 3]
CaCl2 mice In vivo, %: 59 +/− 9% | CaCl2 mice Score: 2 | In vivo activity: +++ (+++ refers to >60% increase in time until arrhythmia)

C[C@H](NC(=O)CN)C(=O)NCC(=O)N1C[C@@H](O)C[C@@H]1C(=O)N1CCC[C@@H]1C(=O)N[C@@H](Cc1ccc(O)cc1)C(N)=O [Compound 10, H-Gly-Ala-Gly-D-Hyp-D-Pro-Tyr-NH2] (H-GAG[dHyp][dP]Y-NH2)
CaCl2 mice Score: 2 | In vivo activity: +++ (+++ refers to >60% increase in time until arrhythmia)

C[C@H](NC(=O)CN)C(=O)NCC(=O)N1CCC[C@@H]1C(=O)N[C@@H](C)C(=O)N[C@@H](Cc1ccc(O)cc1)C(N)=O [Compound 7, H-Gly-Ala-Gly-D-Pro-Ala-Tyr-NH2] (H-GAG[dP]AY-NH2)
CaCl2 mice Score: 1

H-Gly-Asn-Tyr-NH2 [Compound 41]
CaCl2 mice In vivo, %: 58 +/− 10% | CaCl2 mice Score: 2 | In vivo activity: ++ (++ refers to 30-50% increase in time until arrhythmia)

CNCC(=O)N[C@@H](C)C(=O)N(C)CC(=O)N1C[C@H](O)C[C@H]1C(=O)N1CCC[C@H]1C(=O)N[C@@H](Cc1ccc(O)cc1)C(N)=O [Compound 29, H-Sar-Ala-Sar-Hyp-Pro-Tyr-NH2] (H-[Sar]A[Sar][Hyp]PY-NH2)
CaCl2 mice Score: 1 | In vivo activity: + (+ refers to 15-29% increase in time until arrhythmia)

Ac-Gly-Asn-Tyr-NH2 [Compound 40]
CaCl2 mice In vivo, %: 46 +/− 9% | CaCl2 mice Score: 2 | In vivo activity: ++ (++ refers to 30-50% increase in time until arrhythmia)

C[C@H](NC(=O)CN)C(=O)N(C)CC(=O)N1C[C@H](O)C[C@H]1C(=O)N1CCC[C@H]1C(=O)N[C@@H](Cc1ccc(O)cc1)C(N)=O [Compound 30, H-Gly-Ala-Sar-Hyp-Pro-Tyr-NH2] (H-GA[Sar][Hyp]PY-NH2)
CaCl2 mice Score: 2 | In vivo activity: ++ (++ refers to 30-50% increase in time until arrhythmia)

CC(=O)N[C@@H](Cc1ccc(O)cc1)C(=O)N1CCC[C@H]1C(=O)N1C[C@H](O)C[C@H]1C(=O)NCC(=O)N[C@@H](C)C(=O)NCC(=O)O [Compound 1, Ac-Tyr-Pro-4Hyp-Gly-Ala-Gly-OH] (Ac-YP[Hyp]GAG-OH)
CaCl2 mice In vivo, %: 50 +/− 20% | In vivo activity: + (+ refers to 15-29% increase in time until arrhythmia)

3(4-hydroxyphenyl)propionyl-Pro-Hyp-Gly-Ala-Gly-Lys-Lys-Lys-Lys-Lys-Lys-NH2 [Compound 51]
CaCl2 mice In vivo, %: 21 +/− 17% | CaCl2 mice Score: 1

3-(4-hydroxyphenyl)propionyl-Pro-Hyp-Gly-Ala-Gly-OH [HP5, reference compound]
CaCl2 mice In vivo, %: 50 +/− 11% | CaCl2 mice Score: 2 | In vivo activity: ++ (++ refers to 30-50% increase in time until arrhythmia)

C[C@H](NC(=O)CN)C(=O)NCC(=O)N1C[C@@H](O)C[C@@H]1C(=O)N[C@@H](C)C(=O)N[C@@H](Cc1ccc(O)cc1)C(N)=O [Compound 9, H-Gly-Ala-Gly-D-Hyp-Ala-Tyr-NH2] (H-GAG[dHyp]AY-NH2)
CaCl2 mice Score: 1 | In vivo activity: + (+ refers to 15-29% increase in time until arrhythmia)

3(4-hydroxyphenyl)propionyl-Pro-Hyp-Gly-Ala-Gly-Lys-Lys-Lys-Lys-Lys-Lys-OH [Compound 49]
CaCl2 mice In vivo, %: 80 +/− 17% | CaCl2 mice Score: 3

NCC(=O)NCC(=O)N[C@@H](Cc1ccc(O)cc1)C(N)=O [H-GGY-NH2] (H-Gly-Gly-Tyr-NH2)
CaCl2 mice In vivo, %: 39 +/− 9%

CC(=O)NCC(=O)N[C@@H](CC(=O)O)C(=O)N[C@@H](CC(N)=O)C(=O)N[C@@H](Cc1ccc(O)cc1)C(N)=O [Ac-G-D-N-Y-NH2] (Ac-GDNY-NH2)
CaCl2 mice In vivo, %: 19 +/− 8%

C[C@H](NC(=O)CN)C(=O)NCC(=O)N1CSC[C@H]1C(=O)N1CCC[C@H]1C(=O)N[C@@H](Cc1ccc(O)cc1)C(N)=O [Compound 12, H-Gly-Ala-Gly-T4C-Pro-Tyr-NH2] (H-GAG[Thz]PY-NH2)
CaCl2 mice In vivo, %: 32 +/− 6% | CaCl2 mice Score: 2 | In vivo activity: ++ (++ refers to 30-50% increase in time until arrhythmia)

C[C@H](NC(=O)CN)C(=O)NCC(=O)N1C[C@@H](O)C[C@@H]1C(=O)N1CCC[C@H]1C(=O)N[C@@H](Cc1ccc(O)cc1)C(N)=O [Compound 5, H-Gly-Ala-Gly-D-Hyp-Pro-Tyr-NH2] (H-GAG[dHyp]PY-NH2)
CaCl2 mice Score: 1 | In vivo activity: ++ (++ refers to 30-50% increase in time until arrhythmia)

NC(=O)C[C@@H](NC(=O)[C@@H](N)Cc1ccc(O)cc1)C(=O)NCC(=O)O [H-Y-DN-G-OH] (H-Tyr-[dN]-Gly-OH)
CaCl2 mice In vivo, %: 39 +/− 9%

H-Gly-Ala-Gly-Asn-Tyr-NH2 [Compound 39]
CaCl2 mice In vivo, %: 53 +/− 15% | CaCl2 mice Score: 2 | In vivo activity: +++ (+++ refers to >60% increase in time until arrhythmia)

[Pro^4]AAP10-NH2 [reference compound]
CaCl2 mice In vivo, %: 62 +/− 9% | CaCl2 mice Score: 3

NCC(=O)N[C@H](CC(N)=O)C(=O)N[C@@H](Cc1ccc(O)cc1)C(N)=O [H-G-DN-Y-NH2] (H-Gly-[dN]-Tyr-NH2)
CaCl2 mice In vivo, %: 37 +/− 10%

C[C@H](NC(=O)CN)C(=O)NCC(=O)N1CCCC[C@H]1C(=O)N1CCC[C@H]1C(=O)N[C@@H](Cc1ccc(O)cc1)C(N)=O [Compound 14, H-Gly-Ala-Gly-PC-Pro-Tyr-NH2] (H-GAG[Pip]PY-NH2)
CaCl2 mice In vivo, %: 21 +/− 11% | CaCl2 mice Score: 1 | In vivo activity: + (+ refers to 15-29% increase in time until arrhythmia)

H-GAG[Hyp]PYKKKKKK-OH [Compound 48]
CaCl2 mice In vivo, %: 64 +/− 10% | CaCl2 mice Score: 3

CC(=O)N[C@@H](Cc1ccc(O)cc1)C(=O)N[C@H](CC(N)=O)C(=O)NCC(=O)O [Ac-Y-DN-G-OH] (Ac-Tyr-[dN]-Gly-OH)
CaCl2 mice In vivo, %: 44 +/− 10%
